# Literature values, collected in patent publication US20070225367A1, “Composition for beneficially influencing Alzheimer's disease and/or for Alzheimer's prophylaxis” (Clariant International Ltd, priority 2006, published 2007).
# Columns and labels:
# [1] = system: β-amyloid levels; settings: oral administration, APP transgenic mice
# [2] = target: β-amyloid aggregation (Homo sapiens, UniProt P05067); settings: in vitro
# Chain of β-amyloid aggregation (P05067 672-713 limits assumed): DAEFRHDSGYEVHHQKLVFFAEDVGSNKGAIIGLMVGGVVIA
compound,measurement,setting,value
[Cu] [copper],β-amyloid levels,[1],reduced
same,effect on β-amyloid aggregation,[2],inhibitory effect
